Reference: US20180044343A1, “BICYCLIC IMIDAZOLO DERIVATIVE” (Sumitomo Dainippon Pharma Co., Ltd., priority 2015, published 2018)

How the values were obtained:
[1] = molecular target: T1, PDE1B (Homo sapiens, UniProt Q01064); test: In vitro SPA PDE1 inhibition assay (PDE1B); assay type: biochemical; conditions: [3H]-cGMP 100 nM
Description: (§1) The commercially available Scintillation Proximity Assay (SPA) system (Perkinelmer) was used for PDE1 inhibition assays. SPA Yttrium Silicate beads preferentially binds to non-cyclic GMP compared to cyclic GMP (cGMP) in the presence of zinc sulphate, which enables to measure the amount of enzyme reaction product ([^3H]-GMP) by scintillation counting.
(§2) For PDE1 inhibition assay, 10 μl of the test compounds in 5% dimethyl sulfoxide diluted in SPA assay buffer (1 mM CaCl2, 10 mM MgSO4, 10 mM Tris-HCl, pH 7.4) were placed in a 96-well white microtiter plate, and 20 μl of [^3H]-cGMP solution (100 nM final concentration, Perkinelmer) in SPA assay buffer was added. Assays were initiated by adding 20 μl of PDE (1A3, 1B or 1C) enzyme solution including calmodulin (final concentration 1 μg/ml). After 30 min incubation at 27° C., the reaction was stopped by the addition of 50 μl of a suspension of 10 mg/ml SPA beads in 18 mM ZnSO4. The microtiter plates were settled for 60 min, and then were measured in a TopCount NXT scintillation counter (PerkinElmer). IC50 values were determined from sigmoidal curves by plotting the percentage of PDE activity versus log compound concentration. IC50 was defined as the concentration of the test compounds required to inhibit the cyclic nucleotide hydrolyzing activities of tested PDEs by 50%.

[2] = molecular target: T2, PDE1A3 (Homo sapiens, UniProt P54750); test: In vitro SPA PDE1 inhibition assay (PDE1A3); assay type: biochemical; conditions: PDE1A3, [3H]-cGMP 100 nM
Description: as §1, §2

[3] = molecular target: T3, PDE1C (Homo sapiens, UniProt Q14123); test: In vitro SPA PDE1 inhibition assay (PDE1C); assay type: biochemical; conditions: [3H]-cGMP 100 nM
Description: as §1, §2

[4] = molecular target: T3, PDE1C; test: In vitro HTRF PDE1 inhibition assay (PDE1C); assay type: biochemical; conditions: 100 nM cyclic GMP
Text: (§3) An exemplary procedure for the in vitro Homogenous Time Resolved Fluorescence assay, which can be used to determine the inhibitory action of compounds of the present invention toward PDE1 or its isoforms, follows.
(§4) The HTRF PDE1 assay utilized the HTRF (Homogenous Time Resolved Fluorescence) technology, which is based on the competition between unlabeled cyclic nucleotide and cyclic nucleotide labeled with XL665 for the binding to cyclic nucleotide-specific antibody labeled with cryptate. The HTRF signal is thus inversely proportional to the concentration of cyclic nucleotide being measured. Since phosphodiesterases break down cyclic nucleotides, the HTRF signal was used to determine PDE activity.
(§5) The Cisbio cGMP HTRF assay kit (Cat no: 62GM2PEC) was utilized. Cyclic GMP was diluted to 200 nM in HTRF assay buffer (1 mM CaCl2, 10 mM MgCl2, 10 mM Tris-HCl, 0.1% BSA, pH 7.4). 10 μl of compound or DMSO was diluted in 200 nM cyclic GMP solution and added to wells of a 96 well white plate to give 100 nM cyclic GMP in 1% DMSO final concentration. PDE (1A3, 1B or 1C) was diluted to 2× working concentration in HTRF assay buffer with 2 μg/ml Calmodulin, and 10 μl was added to initiate the reaction. The plate was then incubated for 45 minutes at 27° C. d2-Labelled cyclic GMP and anti-cGMP cryptate were diluted in 50 mM phosphate buffer, 0.8 M KF, 1% Triton X100, 0.2% BSA, pH 7.0. Following incubation 10 μl d2-cGMP, then 10 μl anti cGMP cryptate were added to each well and the plate was incubated for 60 minutes at room temperature. The plate was then read on Perkin Elmer EnVision at 2 different FRET readings ex/em 340 nm/665 nm and 340 nm/615 nm.
(§6) Compounds having an IC50 of <1 μM are denoted as +++. Compounds having an IC50 of 1-10 μM are denoted as ++. Compounds having an IC50 of 10-100 μM are denoted as +.

[5] = Evaluation of bioavailability, PK test in rats; assay type: in vivo; conditions: rat; 7 week-old SD rats, intravenous vs oral administration, plasma LC-MS
Description: This test can be used to assess pharmacokinetics of the compounds of the present invention. Each compound of the invention was administered to 7 week-old SD rats intravenously with a solution in saline: 0.1N HCl=9:1 or orally with a 0.5% suspension in methyl cellulose, and each blood sample was collected at an appropriate interval as follows:
5, 15, and 30 minutes, and 1, 2, 4, 6, and 24 hours after intravenous administration
15 and 30 minutes, and 1, 2, 4, 6, and 24 hours after oral administration
The plasma was obtained from each blood, and the concentration of each compound in the plasma was measured with an LC-MS to calculate each pharmacokinetic parameter based on the concentration change.

[6] = molecular target: T1, PDE1B; test: In vitro HTRF PDE1 inhibition assay (PDE1B); assay type: biochemical; conditions: in vitro PDE1B HTRF Assay; read-out: IC50
[7] = molecular target: T2, PDE1A3; test: In vitro HTRF PDE1 inhibition assay (PDE1A3); assay type: biochemical; conditions: PDE1A3, 100 nM cyclic GMP
Text: as §3, §4, §5, §6

[8] = system: cognitive dysfunction in PCP-treated rats; test: Novel object recognition test in rats repeatedly treated with phencyclidine (PCP); assay type: in vivo; conditions: rats given PCP 3 mg/kg i.p. twice a day for 10 days; compound 1 or 3 mg/kg orally 60 minutes before test; compared to PCP+vehicle group
Description: Since an N-Methyl-D-aspartate receptor antagonist phencyclidine (PCP) has been known to cause schizophrenia-like symptoms including cognitive dysfunction in humans, PCP-treated animals have been widely used as a schizophrenic animal model. Using rats to which PCP was repeatedly administered as a schizophrenic animal model, the improvement in cognitive dysfunction with the compounds of the invention was evaluated in the novel object recognition test. Rats were habituated to the test environment which is a box (50 cm×50 cm×35 cm) with no object inside for 1 hour per day for 3 days. On the test day, rats were again put into the test box with no object inside to habituate themselves for three minutes. The rats were then put into the test box with two identical objects inside and were made to explore inside for three minutes for a training trial. After one minute, they were put into the test box with one of the objects (i.e., the familiar object) that was the same as used in the training trial and another object (i.e., a novel object) inside and were made to explore inside for three minutes for a test trial. Cognitive function was evaluated on the basis of preference for the novel object in the test trial utilizing rats' habit of exploring a novel object longer than a familiar object. Discrimination Index was calculated from the following equation as an index for preference of a novel object.
Discrimination Index=(Time to explore novel object−Time to explore familiar object)/(Time to explore novel object+Time to explore familiar object)

[9] = Test for drug transportation to brain in rats; assay type: in vivo; conditions: rat; SD rats, oral, one hour after administration; non-binding drug concentration ratio between brain and plasma
Text: Test for Drug Transportation to Brain in Rats
This test can be used to assess transportation of the compounds of the present invention to the brain. Each compound of the invention was orally administered to 7 week-old SD rats with a 0.5% suspension in methyl cellulose, and each plasma and brain were collected one hour after administration to measure the concentration of each compound in the plasma and the brain with an LC-MS.
Each protein binding ratio of the compounds in the plasma and the brain was measured by the equilibrium dialysis method.
The obtained concentrations and protein binding ratios of the compounds in the plasma and the brain can be applied to the following equation to calculate Kp, uu, brain (i.e., non-binding drug concentration ratio between brain and plasma).
Kp, uu, brain=[Compound concentration in brain×(100−Protein binding ratio in brain (%))/100]/[Compound concentration in plasma×(100−Protein binding ratio in plasma (%))/100]

T1 sequence (Q01064 whole entry): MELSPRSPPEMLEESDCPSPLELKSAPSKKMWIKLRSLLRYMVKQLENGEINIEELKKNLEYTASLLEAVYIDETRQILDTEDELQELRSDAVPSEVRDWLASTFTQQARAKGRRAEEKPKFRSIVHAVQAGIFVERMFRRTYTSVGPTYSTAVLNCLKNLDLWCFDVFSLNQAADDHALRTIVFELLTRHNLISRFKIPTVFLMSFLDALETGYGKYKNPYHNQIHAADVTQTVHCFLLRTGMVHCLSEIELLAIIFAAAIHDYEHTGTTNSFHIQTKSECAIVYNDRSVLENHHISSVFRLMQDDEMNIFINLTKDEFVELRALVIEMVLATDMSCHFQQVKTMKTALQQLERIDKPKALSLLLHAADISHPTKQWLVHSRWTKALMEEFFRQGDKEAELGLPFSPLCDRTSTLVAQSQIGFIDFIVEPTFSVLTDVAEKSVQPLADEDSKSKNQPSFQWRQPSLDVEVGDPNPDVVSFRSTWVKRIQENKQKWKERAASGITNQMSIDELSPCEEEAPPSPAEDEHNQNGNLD

| IC50 [1] [µM] | IC50 [2] [µM] | IC50 [3] [µM] | IC50 [4] [µM] | bioavailability [5] [%] | IC50 [6] [nM] | IC50 [7] [µM] | Kp uu at 1 h [9] | Compound | Discrimination Index in novel object recognition test [8] |
| --- | --- | --- | --- | --- | --- | --- | --- | --- | --- |
| 0.088 | 0.22 | 0.665 | < 1 | 23.3 | < 1000 | < 1 | 0.69 | CCn1c(OCC2CCC(F)(F)CC2)nn2c(C3CCOCC3)ncc2c1=O [Example 1] | significant increase |
| 0.023 | 0.08 | 0.276 | < 1 | 54.5 | < 1000 | < 1 | 0.61 | CCOC[C@H]1CC[C@H](COc2nn3c(C4CCOCC4)ncc3c(=O)n2C)CC1 [Example 288, 2-{[trans-4-(ethoxymethyl)cyclohexyl]methoxy}-3-methyl-7-(tetrahydro-2H-pyran-4-yl)-imidazo[5,1-][1,2,4]triazin-4(3H)-one] | significant increase |
